From US20240294531A1, “COVALENT HETEROCYCLES AND USES THEREOF” (Kumquat Biosciences Inc., priority 2022, published 2024)
pIC50: −log10 of the molar value.

How the values were obtained:
MGLL = MGLL (Homo sapiens (Human), UniProt Q99685, K36A/L169S/L176S); experiment: MGLL compound modification assay (intact protein LC-MS); type: binding; details: at 4 hours; compound concentration of 3 μM
Method: Test compounds were prepared as 10 mM stock solutions in DMSO (Fisher cat #BP231-100). Human recombinant MGLL protein 1-303 containing K36A, L169S, L176S amino acid substitutions were produced at in house. On the day of the assay, MGLL protein was diluted to 2 μM in assay buffer (20 mM Hepes, pH 7.5, 150 mM NaCl, 1 mM MgCl2, 1 mM DTT). For testing MGLL modification, compounds were diluted to 50× final test concentration in DMSO in 96-well storage plates. […] of the diluted 50× compounds were added to appropriate wells in the PCR plate (Fisher cat #AB-0800). 49 μL of the stock protein solution was added to each well of the 96-well PCR plate to form a mixture. The plate was sealed well with aluminum plate seal and stored in a drawer at room temperature. […]
The extent of covalent modification of MGLL proteins was determined by liquid chromatography electrospray mass spectrometry analysis of the intact proteins using a Thermo Q-Exactive Plus mass spectrometer. […] The recorded protein mass spectrum was deconvoluted from the raw data file using Protein Deconvolution v4.0 (Thermo). […]
Certain compounds disclosed herein are expected to covalently modify MGLL protein when assessed using the assay described above by at least 1%, such as by at least 5%, 10%, 20%, 30%, 40%, or at least 50%.

BTK wildtype protein = BTK wildtype protein (Homo sapiens (Human), UniProt Q06187); experiment: BTK wildtype HTRF displacement assay; type: binding; details: 1-hour incubation; read-out: BTK (wt) IC50
In short: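 Tracer-displacement HTRF format: compound and tracer 239 compete at the BTK active site, detected via anti-GST-Tb on GST-tagged full-length enzyme. One-hour room-temperature incubation; compounds dosed at six four-fold steps down from 5 μM. Percent inhibition versus DMSO gives IC50 by constrained four-parameter logistic fit.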

BTK C481S protein = BTK C481S protein (Homo sapiens (Human), UniProt Q06187, C481S); experiment: BTK C481S HTRF displacement assay; type: binding; details: 1-hour incubation
In short: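 Tracer displacement read by HTRF after 1 hour at room temperature: GST-BTK C481S 2-659, 50 nM tracer 239 (Kd 54 nM), anti-GST antibody, compound in six four-fold doses from 5 μM. Percent inhibition versus DMSO fitted (bottom 0, top 100) for IC50, converted to KI via Cheng-Prusoff.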

[1] = Intrinsic reactivity assay; type: physicochemical; details: pH 7.4, 37° C., suitably protected Cys-OMe
From the text: Understanding of the intrinsic reactivity of electrophilic warheads with nucleophilic molecules is an important parameter influencing the stability of a compound in biological matrices. Lower intrinsic reactivity also mitigates the risk of covalent off-target reactivity. A common target residue for covalent drugs is cysteine, an amino acid containing a nucleophilic thiol side chain. The assay described here measures the rate of a compound forming a covalent bond with Boc-protected cysteine methyl ester or cysteine methyl ester that can be used as a surrogate for cysteines found on proteins.
Test compounds are prepared as 10 mM stock solutions in DMSO (Fisher cat #BP231-100). Compounds with molecular weight differing more than 3 Dalton are pooled and diluted to 5 μM in 100 mM potassium phosphate buffer, pH 7.4, containing 50 mM Boc-protected cysteine methyl ester (Combi-Blocks cat #QH-3424). Compounds incubated without Boc-protected cysteine methyl ester serve as controls. The reactions are incubated at 37° C., and reaction aliquots at different time intervals are sampled from the reaction and quenched with formic acid for subsequent LC-MS/MS analysis.
The LC-MS/MS analysis is done using a LC-40D×3 pump and SIL-40C×3 autosampler (Shimadzu) coupled to a QTRAP 6500+ (Sciex). Compounds are separated on a XBridge Premier BEH column (Waters). The sample run time is about 4 minutes per injection. The normalized peak area for each compound is extracted from the mass spectrometry raw files, and the data for each compound are plotted against time in Prism version 9.4 (GraphPad). Nonlinear regression using one-phase decay is used to estimate the rate of covalent bond formation with Boc-protected cysteine methyl ester or cysteine methyl ester and parent compound half-life (t½).

Sequence of BTK C481S protein (Q06187 2-659 C481S): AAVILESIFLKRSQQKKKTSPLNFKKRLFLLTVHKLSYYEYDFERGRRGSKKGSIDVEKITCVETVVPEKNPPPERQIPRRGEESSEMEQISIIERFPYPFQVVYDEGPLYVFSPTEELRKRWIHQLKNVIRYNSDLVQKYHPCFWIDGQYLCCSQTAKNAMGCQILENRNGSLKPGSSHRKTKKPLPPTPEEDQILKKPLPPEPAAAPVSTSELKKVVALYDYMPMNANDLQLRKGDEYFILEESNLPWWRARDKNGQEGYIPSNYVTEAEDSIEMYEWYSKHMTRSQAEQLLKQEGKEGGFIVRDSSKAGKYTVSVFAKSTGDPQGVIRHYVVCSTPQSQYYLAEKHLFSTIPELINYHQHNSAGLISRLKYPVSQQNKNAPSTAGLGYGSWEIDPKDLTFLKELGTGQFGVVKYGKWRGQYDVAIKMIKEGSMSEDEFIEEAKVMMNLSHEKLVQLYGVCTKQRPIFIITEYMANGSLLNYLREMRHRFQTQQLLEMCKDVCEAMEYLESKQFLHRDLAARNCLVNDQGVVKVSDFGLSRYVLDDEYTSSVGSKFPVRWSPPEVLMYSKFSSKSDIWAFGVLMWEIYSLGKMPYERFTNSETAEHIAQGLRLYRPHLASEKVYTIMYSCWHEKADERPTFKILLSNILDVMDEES
Sequence of BTK wildtype protein (Q06187 2-659): as the sequence (Q06187 2-659 C481S) above, with S480C counted along it
Sequence of MGLL (Q99685 whole entry K36A/L169S/L176S): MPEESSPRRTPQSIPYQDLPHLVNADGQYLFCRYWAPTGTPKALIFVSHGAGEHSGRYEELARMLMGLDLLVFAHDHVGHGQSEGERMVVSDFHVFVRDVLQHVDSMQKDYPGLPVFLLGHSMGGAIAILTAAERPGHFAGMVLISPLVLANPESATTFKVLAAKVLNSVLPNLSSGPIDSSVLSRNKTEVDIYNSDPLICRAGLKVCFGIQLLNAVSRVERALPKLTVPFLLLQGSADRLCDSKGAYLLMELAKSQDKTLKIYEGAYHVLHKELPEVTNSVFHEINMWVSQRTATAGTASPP

Structure (SMILES)	% MGLL protein modification (MGLL)	pIC50 (BTK wildtype protein)	pIC50 (BTK C481S protein)	K (min^−1), intrinsic rate constant [1]
CN(C(=O)n1cncn1)C1CCC(n2nc(-c3ccc(Oc4ccccc4)cc3)c3c(N)ncnc32)CC1 (stereo not shown) [Compound 133, N-(4-(4-amino-3-(4-phenoxyphenyl)-1H-pyrazolo[3,4-d]pyrimidin-1-yl)cyclohexyl)-N-methyl-1H-1,2,4-triazole-1-carboxamide]	over 50%	≥ 6.00	≥ 6.00	
CCN(CC)C(=O)n1cncn1				<0.0005 min⁻¹
